Reference: patent US8039505B2, “Compounds for modulating T-cells” (University of Utah Research Foundation, priority 2007, dated 2011)

Test: Complete blood count (CBC) evaluation in mice
Assay type: in vivo, male Swiss Albino mouse
Conditions: mouse, 48 h after dosing
Experimental: The pharmacokinetics of 1H-indole-3-carbaldehyde quinolin-8-ylhydrazone (Compound C3) was evaluated following intravenous (3 mg/kg) and oral (15 mg/kg) solution administration of 1H-indole-3-carbaldehyde quinolin-8-ylhydrazone in male Swiss Albino mouse. The effect of the Test Item, 1H-indole-3-carbaldehyde quinolin-8-ylhydrazone on complete blood count (CBC) was also evaluated. Pharmacokinetic phase consisted of two groups, Group 1 and Group 2. Animals in Group 1 were given intravenous bolus dose in a vehicle containing 5% N,N-dimethylacetamide, 5% CREMOPHOR™ EL and 90% Dextrose solution (5% w/v) and those in Group 2 were given oral solution dose in a vehicle, the composition of which was same as that of intravenous formulation. In addition, the effect of Test Item on complete blood count was evaluated following intravenous and oral dose administration along with its vehicle controls. A total of four groups were used each with 6 mice.
From the pharmacokinetic group, predose samples were collected from 3 animals in each group. Following dose administration terminal blood samples were collected at each of the following time points (in triplicate): 0.083 (only for intravenous), 0.25, 0.5, 1, 2, 4, 8, 12 and 24 hours. At each time point, approximately 500 μL of whole blood was withdrawn from the retro orbital sinus and collected in labeled tubes containing dipotassium EDTA as anticoagulant (20 μL of 200 mM K2 EDTA solution per mL of blood). Plasma was separated by centrifuging the whole blood at about 2500 g for 10 minutes at 4° C. within 1 h of sample collection. Separated plasma was stored below minus 50° C. until bioanalysis. A sensitive LC-MS/MS method was used for the quantitation of 1H-indole-3-carbaldehyde quinolin-8-ylhydrazone. The lower limit of quantitation was 1.04 ng/mL. For CBC evaluation, approximately 500 μL of blood was collected in labeled tubes containing dipotassium EDTA as anticoagulant (10 […]/mL of blood) after 48 h of dose administration from all animals.
A total of 24 mice were divided in to four groups as follows: […]

Other hematological parameters vs vehicle control (intravenous 3 mg/kg and oral 15 mg/kg): no effect
White blood cell count vs vehicle control (intravenous 3 mg/kg): lower
Platelet count vs vehicle control (oral 15 mg/kg): lower
Compound: C(=NNc1cccc2cccnc12)c1c[nH]c2ccccc12 [Compound C3, 1H-indole-3-carbaldehyde quinolin-8-ylhydrazone]
